{
  "source": "ChEMBL document CHEMBL1145308",
  "about": "(Bioorg Med Chem Lett, 2006)",
  "key": {"[1]": {"assay": "in vitro", "details": "mouse, microsomes, CL", "description": "Intrinsic clearance in mouse microsome"}, "[2]": {"molecular_target": "T1, Sodium- and chloride-dependent glycine transporter 2 (Homo sapiens, UniProt Q9Y345)", "T1 sequence (Q9Y345 whole entry)": "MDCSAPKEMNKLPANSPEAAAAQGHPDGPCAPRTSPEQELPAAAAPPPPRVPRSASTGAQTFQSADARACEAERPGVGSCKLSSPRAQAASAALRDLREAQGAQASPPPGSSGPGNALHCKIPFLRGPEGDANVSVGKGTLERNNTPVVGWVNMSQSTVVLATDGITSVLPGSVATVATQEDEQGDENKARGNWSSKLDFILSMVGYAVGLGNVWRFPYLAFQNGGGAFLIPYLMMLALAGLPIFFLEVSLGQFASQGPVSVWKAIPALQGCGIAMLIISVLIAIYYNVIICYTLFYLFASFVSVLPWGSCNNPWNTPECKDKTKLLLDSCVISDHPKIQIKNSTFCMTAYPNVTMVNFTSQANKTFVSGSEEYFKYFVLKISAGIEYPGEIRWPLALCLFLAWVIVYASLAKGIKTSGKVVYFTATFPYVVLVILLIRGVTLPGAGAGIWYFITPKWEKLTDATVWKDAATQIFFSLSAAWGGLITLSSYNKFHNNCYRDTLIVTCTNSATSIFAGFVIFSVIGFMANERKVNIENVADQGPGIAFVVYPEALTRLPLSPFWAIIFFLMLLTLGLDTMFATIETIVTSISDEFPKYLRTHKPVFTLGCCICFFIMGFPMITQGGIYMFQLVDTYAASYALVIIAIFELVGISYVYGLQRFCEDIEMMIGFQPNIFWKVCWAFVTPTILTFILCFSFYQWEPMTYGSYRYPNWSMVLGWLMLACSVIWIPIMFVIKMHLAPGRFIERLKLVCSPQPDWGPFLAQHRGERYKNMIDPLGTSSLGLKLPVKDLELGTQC", "assay": "(§1) Inhibition of [3H]glycine uptake at GlyT2"}, "[3]": {"assay": "in vitro", "details": "human, microsomes, CL", "description": "Intrinsic clearance in human microsome"}, "[4]": {"assay": "in vitro", "details": "human, microsomes, Max Achievable Bioavailability", "description": "Maximum achievable bioavailability in human microsome"}, "[5]": {"assay": "in vitro", "details": "mouse, microsomes, Max Achievable Bioavailability", "description": "Maximum achievable bioavailability in mouse microsome"}, "[6]": {"molecular_target": "Voltage-gated inwardly rectifying potassium channel KCNH2 (Homo sapiens, UniProt Q12809)", "sequence (Q12809 whole entry)": "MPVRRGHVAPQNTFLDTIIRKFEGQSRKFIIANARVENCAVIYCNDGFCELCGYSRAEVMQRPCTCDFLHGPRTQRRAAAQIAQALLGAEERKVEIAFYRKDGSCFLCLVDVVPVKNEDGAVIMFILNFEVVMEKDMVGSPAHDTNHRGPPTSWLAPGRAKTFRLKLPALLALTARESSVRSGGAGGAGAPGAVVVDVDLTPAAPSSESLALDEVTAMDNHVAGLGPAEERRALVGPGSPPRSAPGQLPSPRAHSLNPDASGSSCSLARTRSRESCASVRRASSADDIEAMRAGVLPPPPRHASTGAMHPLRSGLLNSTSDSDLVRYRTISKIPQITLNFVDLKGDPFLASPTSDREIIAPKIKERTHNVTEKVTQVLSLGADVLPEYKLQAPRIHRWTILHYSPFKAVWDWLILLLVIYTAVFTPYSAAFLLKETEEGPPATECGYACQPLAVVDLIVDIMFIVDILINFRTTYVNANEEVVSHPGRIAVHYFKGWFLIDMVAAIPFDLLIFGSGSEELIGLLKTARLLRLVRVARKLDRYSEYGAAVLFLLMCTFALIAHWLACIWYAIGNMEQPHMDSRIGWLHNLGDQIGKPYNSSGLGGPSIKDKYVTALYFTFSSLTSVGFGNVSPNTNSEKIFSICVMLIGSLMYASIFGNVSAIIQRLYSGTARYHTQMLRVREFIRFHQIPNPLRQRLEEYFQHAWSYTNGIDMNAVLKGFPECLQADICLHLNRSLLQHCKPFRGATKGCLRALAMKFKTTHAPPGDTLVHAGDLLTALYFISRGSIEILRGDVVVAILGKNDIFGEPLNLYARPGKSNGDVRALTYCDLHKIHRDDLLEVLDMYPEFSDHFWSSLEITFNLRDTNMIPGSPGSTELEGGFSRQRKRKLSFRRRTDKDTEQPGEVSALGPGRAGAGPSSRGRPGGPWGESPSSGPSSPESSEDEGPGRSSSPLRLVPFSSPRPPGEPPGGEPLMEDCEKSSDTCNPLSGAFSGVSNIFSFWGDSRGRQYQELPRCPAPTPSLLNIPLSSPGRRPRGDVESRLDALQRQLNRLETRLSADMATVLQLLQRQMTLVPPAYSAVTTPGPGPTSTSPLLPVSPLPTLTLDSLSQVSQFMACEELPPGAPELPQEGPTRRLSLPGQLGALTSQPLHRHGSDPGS", "description": "Inhibition of hERG potassium channel expressed in CHO cells by whole cell patch clamp method"}, "[7]": {"molecular_target": "T2, Sodium- and chloride-dependent glycine transporter 1 (Homo sapiens, UniProt P48067)", "T2 sequence (P48067 whole entry)": "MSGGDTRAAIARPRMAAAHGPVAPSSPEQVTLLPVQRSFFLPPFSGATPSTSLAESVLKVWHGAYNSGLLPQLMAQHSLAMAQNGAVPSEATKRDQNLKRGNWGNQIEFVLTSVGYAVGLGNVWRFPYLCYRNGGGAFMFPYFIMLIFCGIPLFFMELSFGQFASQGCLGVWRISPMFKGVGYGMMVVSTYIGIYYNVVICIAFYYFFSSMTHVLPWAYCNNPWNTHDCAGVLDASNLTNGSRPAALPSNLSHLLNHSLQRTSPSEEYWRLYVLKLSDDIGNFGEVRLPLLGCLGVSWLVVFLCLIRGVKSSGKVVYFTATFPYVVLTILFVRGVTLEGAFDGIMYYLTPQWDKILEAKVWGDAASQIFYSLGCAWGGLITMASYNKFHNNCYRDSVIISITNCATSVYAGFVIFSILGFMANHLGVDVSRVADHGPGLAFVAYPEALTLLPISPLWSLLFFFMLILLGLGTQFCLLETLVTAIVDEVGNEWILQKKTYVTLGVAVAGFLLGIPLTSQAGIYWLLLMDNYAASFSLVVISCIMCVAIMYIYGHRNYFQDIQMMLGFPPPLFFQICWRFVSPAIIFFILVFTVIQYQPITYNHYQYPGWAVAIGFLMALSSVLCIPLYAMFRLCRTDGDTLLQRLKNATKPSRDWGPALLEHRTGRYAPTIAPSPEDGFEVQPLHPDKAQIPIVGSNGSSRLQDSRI", "assay": "(§2) Inhibition of [3H]glycine uptake at GlyT1"}, "[8]": {"assay": "Dissociation constant, pKa of the compound", "format": "physicochemical"}, "[9]": {"molecular_target": "T3, Sodium- and chloride-dependent glycine transporter 2 (Homo sapiens) (UniProt Q9Y345)", "T3 sequence (whole entry)": "T1 sequence (Q9Y345 whole entry)", "assay": "as §1"}, "[10]": {"molecular_target": "T4, Sodium- and chloride-dependent glycine transporter 1 (Homo sapiens) (UniProt P48067)", "T4 sequence (whole entry)": "T2 sequence (P48067 whole entry)", "assay": "as §2"}, "[11]": {"assay": "Clearance in mouse", "format": "ADME, organism-based", "details": "in vivo"}, "[12]": {"assay": "Oral bioavailability in mouse", "format": "ADME, organism-based", "details": "in vivo"}, "[13]": {"assay": "Ratio of drug level in brain against plasma in mouse", "format": "ADME, organism-based", "details": "read-out: BPR"}, "[14]": {"assay": "Volume of distribution in mouse", "format": "ADME, organism-based", "details": "in vivo, read-out: Vss"}, "[15]": {"assay": "Half life in mouse", "format": "ADME, organism-based", "details": "in vivo"}},
  "data": [
    {"smiles": "O=C1NCN(c2ccccc2)C12CCN(C1(c3ccccc3)CCCCC1)CC2", "values": [
      {"measurement": "microsomal CLint", "setting": "[1]", "result": 470, "unit": "µL/min/mg"},
      {"measurement": "EC50", "setting": "[2]", "result": "> 30", "unit": "µM"},
      {"measurement": "microsomal CLint", "setting": "[3]", "result": 82, "unit": "µL/min/mg"},
      {"measurement": "Fh", "setting": "[4]", "result": 16, "unit": "%"},
      {"measurement": "Fh", "setting": "[5]", "result": 6, "unit": "%"}
    ]},
    {"smiles": "O=C1NCC(c2ccccc2)C12CCN(C1(c3ccccc3)CCCOC1)CC2", "note": "(stereo not given)", "values": [
      {"measurement": "IC50", "setting": "[6]", "result": "> 11", "unit": "µM"},
      {"measurement": "EC50", "setting": "[7]", "result": 1.42, "unit": "µM"},
      {"measurement": "pKa", "setting": "[8]", "result": 7.1}
    ]},
    {"smiles": "O=C1NCC(c2ccccc2)C12CCN(C1(c3ccccc3)CCOCC1)CC2", "note": "(stereo not given)", "values": [
      {"measurement": "pKa", "setting": "[8]", "result": 7.71}
    ]},
    {"smiles": "O=C1NCC(c2ccc(F)cc2)C12CCN(C1(c3ccc(F)cc3)CCCCCC1)CC2", "note": "(stereo not given)", "values": [
      {"measurement": "Activity", "setting": "[9]", "result": "> 30", "unit": "µM"},
      {"measurement": "Activity", "setting": "[10]", "result": 245, "unit": "nM"}
    ]},
    {"smiles": "O=C1NCC(c2ccc(F)cc2)C12CCN(C1(c3ccc(F)cc3)CCCCC1)CC2", "note": "(stereo in doubt)", "values": [
      {"measurement": "EC50", "setting": "[2]", "result": "> 30", "unit": "µM"},
      {"measurement": "clearance", "setting": "[11]", "result": 35, "unit": "mL/min/kg"},
      {"measurement": "bioavailability", "setting": "[12]", "result": 60, "unit": "%"},
      {"measurement": "Kp", "setting": "[13]", "result": 3},
      {"measurement": "Fh", "setting": "[4]", "result": 84, "unit": "%"},
      {"measurement": "Fh", "setting": "[5]", "result": 98, "unit": "%"},
      {"measurement": "Vd", "setting": "[14]", "result": 7.6, "unit": "L/kg"},
      {"measurement": "pKa", "setting": "[8]", "result": 8.75},
      {"measurement": "half-life", "setting": "[15]", "result": 2.8, "unit": "h"}
    ]}
  ]
}
